Results as given in patent US20240189266A1, “Lactoyl Amino Acids for the Treatment of Metabolic Disease” (The Board of Trustees of the Leland Stanford Junior …, priority 2021, published 2024).

How the values were obtained:
[1] = Plasma Lac-Phe level after intraperitoneal injection; assay type: in vivo; details: C57BL/6J DIO, mouse, 50 mg/kg IP, DIO mice, mean±SEM, read-out: plasma levels 30 min post injection
Procedure: General animal information. Animal experiments were performed according to procedure approved by the Stanford University Administrative Panel on Laboratory Animal Care (APLAC). Mice were maintained in 12-hr light-dark cycles at 22° C. and ˜50% relative humidity and fed a standard irradiated rodent chow diet. Where indicated, high-fat diet (D12492, Research Diets 60% kcal from fat) was used. C57BL/6J (stock no. 000664) and C57BL/6J DIO mice (stock no. 380050) were purchased from Jackson Laboratory. C57BL/6NCrl (stock no. 027) mice were purchased from Charles River Laboratory. Whole body CNDP2 knockout mice (catalog number, C57BL/6NCrl-Cndp2em1(IMPC)Mbp/Mmucd, RRID: MMRRC_043492-UCD) were obtained from the Mutant Mouse Regional Resource Center, a NCRR-NIH funded strain repository. For in vivo injection of mice with compounds including Lac-Phe, lactate, and phenylalanine, compounds were dissolved in 18:1:1 (by volume) of saline/Kolliphor EL (Sigma Aldrich)/DMSO. Compounds were administered to mice daily via intraperitoneal injections at 5 μl/g body weight at the indicated doses. For all injection experiments, mice were mock injected with the vehicle for 3-5 days until body weights have stabilized. For glucose tolerance tests, mice were fasted for 6 hours then injected with glucose at 10 μl/g body weight. A dose of 1 g/kg was used for the GTT of vehicle and Lac-Phe treated obese mice. […]

[2] = Acute Lac-Phe administration to DIO mice in metabolic chambers; assay type: in vivo; details: single 50 mg/kg IP
Procedure: (§1) General animal information. Animal experiments were performed according to procedure approved by the Stanford University Administrative Panel on Laboratory Animal Care (APLAC). Mice were maintained in 12-hr light-dark cycles at 22° C. and ˜50% relative humidity and fed a standard irradiated rodent chow diet. Where indicated, high-fat diet (D12492, Research Diets 60% kcal from fat) was used. C57BL/6J (stock no. 000664) and C57BL/6J DIO mice (stock no. 380050) were purchased from Jackson Laboratory. C57BL/6NCrl (stock no. 027) mice were purchased from Charles River Laboratory. Whole body CNDP2 knockout mice (catalog number, C57BL/6NCrl-Cndp2em1(IMPC)Mbp/Mmucd, RRID: MMRRC_043492-UCD) were obtained from the Mutant Mouse Regional Resource Center, a NCRR-NIH funded strain repository. For in vivo injection of mice with compounds including Lac-Phe, lactate, and phenylalanine, compounds were dissolved in 18:1:1 (by volume) of saline/Kolliphor EL (Sigma Aldrich)/DMSO. Compounds were administered to mice daily via intraperitoneal injections at 5 μl/g body weight at the indicated doses. For all injection experiments, mice were mock injected with the vehicle for 3-5 days until body weights have stabilized. For glucose tolerance tests, mice were fasted for 6 hours then injected with glucose at 10 μl/g body weight. A dose of 1 g/kg was used for the GTT of vehicle and Lac-Phe treated obese mice.

[3] = Chronic 10-day Lac-Phe administration to DIO mice (food intake, body weight, GTT, tissue weights); assay type: in vivo
Procedure: as §1

[4] = 7-day comparison of Lac-Phe with lactate and phenylalanine in DIO mice; assay type: in vivo; details: 50 mg/kg IP daily, 13-week male DIO mice
Procedure: as §1

[5] = 9-day Lac-Phe treatment of 18 week DIO mice (FIG. 17); assay type: in vivo; details: 50 mg/kg/day IP
Procedure: as §1

[6] = tested on: AgRP neurons in the arcuate nucleus of hypothalamus (ARH); assay: Whole-cell patch-clamp slice electrophysiology, AgRP neurons; assay type: cell-based, mice
Procedure: (§2) Slice electrophysiology studies. Several genetic mouse strains were used for electrophysiological recordings from identified neural populations. These included AgRP-IRES-Cre/Rosa26-LSL-tdTOMATO mice for recordings from AgRP neurons in the arcuate nucleus of hypothalamus (ARH); POMC-CreER/Rosa26-LSL-tdTOMATO mice (with 200 mg/kg tamoxifen induction at 8-12 weeks) were used for recordings from POMC neurons in the ARH; SF1-Cre/Rosa26-LSL-tdTOMATO mice were used for recordings from SF1 neurons in the ventromedial hypothalamus (VMH); TPH2-CreER/Rosa26-LSL-tdTOMATO mice (with 200 mg/kg tamoxifen induction at 8-12 weeks) were used for recording from 5-HT neurons in the dorsal raphe nucleus (DRN). Mice (males and females, 8-16 weeks old) were anesthetized with isoflurane and transcardially perfused with a modified ice-cold sucrose-based cutting solution (pH 7.4; containing 10 mM NaCl, 25 mM NaHCO3, 195 mM sucrose, 5 mM glucose, 2.5 mM KCl, 1.25 mM NaH2PO4, 2 mM sodium pyruvate, 0.5 mM CaCl2, and 7 mM MgCl2, bubbled continuously with 95% O2 and 5% CO2). The mice were then decapitated, and the entire brain was removed and immediately submerged in the cutting solution. Coronal slices (220 μm) were cut with a Microm HM 650V vibratome (Thermo Scientific). Brain slices containing the desired region (ARH, VMH, or DRN) were collected for each corresponding mouse, and recordings were made at levels throughout this brain region. The slices were recovered for ˜30 minutes at 32° C. and then maintained at room temperature for another 1 hour in oxygenated (95% O2 and 5% CO2) artificial cerebrospinal fluid (ACSF, pH 7.4; containing 126 mM NaCl, 2.5 mM KCl, 2.4 mM CaCl2, 1.2 mM NaH2PO4, 1.2 mM MgCl2, 11.1 mM glucose, and 21.4 mM NaHCO3) before recording.
(§3) Slices were transferred to the recording chamber at 32° C. and perfused continuously with oxygenated ACSF at a flow rate of 1.8-2.0 ml/min. […] Recordings were made using a MultiClamp 700B amplifier (Axon Instruments), sampled using Digidata 1440A, and analyzed offline with pClamp 10.3 software (Axon Instruments). Series resistance was monitored during the recording, and the values were generally <10 MO and were not compensated. The liquid junction potential was monitored and corrected. […] To ensure each recorded neuron receive same amount of Lac-Phe, the neurons located on the surface of the slice were selected to record and the puff pipette was always put at a 100 μm horizontal and 100 μm vertical distance from the recorded neurons. […] Each neuron was recorded for at least 1 minute at baseline and only the neurons with stable baseline were used to test the Lac-Phe treatment. […]

POMC neurons in the ARH = assay: Whole-cell patch-clamp slice electrophysiology, POMC neurons; assay type: cell-based, mice
Procedure: as §2, with “Coronal slices (220 μm) were cut with a Microm HM 650V vibratome (Thermo Scientific). Brain slices containing the desired region (ARH, VMH, or DRN) were collected for each corresponding mouse, and recordings were made at levels throughout this brain region. The slices were recovered for ˜30 minutes at 32° C. and then maintained at room temperature for another 1 hour in oxygenated (95% O2 and 5% CO2) artificial cerebrospinal fluid (ACSF, pH 7.4; containing 126 mM NaCl, 2.5 mM KCl, 2.4 mM CaCl2, 1.2 mM NaH2PO4, 1.2 mM MgCl2, 11.1 mM glucose, and 21.4 mM NaHCO3) before recording.” left out
as §3

[7] = tested on: serotonin (5-HT)-positive neurons in the dorsal raphe nuclei (DRN); assay: Whole-cell patch-clamp slice electrophysiology, 5-HT neurons; assay type: cell-based, mice; details: 50 μM
Procedure: (§4) Slice electrophysiology studies. Several genetic mouse strains were used for electrophysiological recordings from identified neural populations. These included AgRP-IRES-Cre/Rosa26-LSL-tdTOMATO mice for recordings from AgRP neurons in the arcuate nucleus of hypothalamus (ARH); POMC-CreER/Rosa26-LSL-tdTOMATO mice (with 200 mg/kg tamoxifen induction at 8-12 weeks) were used for recordings from POMC neurons in the ARH; SF1-Cre/Rosa26-LSL-tdTOMATO mice were used for recordings from SF1 neurons in the ventromedial hypothalamus (VMH); TPH2-CreER/Rosa26-LSL-tdTOMATO mice (with 200 mg/kg tamoxifen induction at 8-12 weeks) were used for recording from 5-HT neurons in the dorsal raphe nucleus (DRN). […]
(§5) Slices were transferred to the recording chamber at 32° C. and perfused continuously with oxygenated ACSF at a flow rate of 1.8-2.0 ml/min. […] Recordings were made using a MultiClamp 700B amplifier (Axon Instruments), sampled using Digidata 1440A, and analyzed offline with pClamp 10.3 software (Axon Instruments). Series resistance was monitored during the recording, and the values were generally <10 MO and were not compensated. The liquid junction potential was monitored and corrected. […] Each neuron was recorded for at least 1 minute at baseline and only the neurons with stable baseline were used to test the Lac-Phe treatment. […]

[8] = tested on: SF1-positive neurons of the ventromedial hypothalamic nucleus (VMH); assay: Whole-cell patch-clamp slice electrophysiology, SF1 neurons; assay type: cell-based, mice; details: 50 μM
Procedure: as §4, §5

RAW264.7 cells = assay: In vitro Lac-Phe production assay with added lactate, RAW264.7; assay type: cell-based, murine; details: lactate 25 mM in conditioned media
Procedure: Cell line cultures. All cell lines were obtained from ATCC and grown at 37° C. with 5% CO2. RAW 264.7, HEK293T, HEK293A, C2C12, F442A, 3T3-L1, Caco2, and SW48 were grown in Dulbecco's modified Eagle's medium (DMEM) with 10% fetal bovine serum (FBS) and penicillin/streptomycin (pen/strep). AML-12 cells were grown in DMEM with 10% FBS and pen/strep supplemented with Insulin-Transferrin-Selenium. T84 cells were grown in Dulbecco's modified Eagle's medium/nutrient mixture F-12 (DMEM/F-12) with 5% FBS and pen/strep.
In vitro Lac-Phe Production assay. Cells were plated in 12-well plates at 70-80% confluence. The next day, cells were washed two times with PBS and incubated in 0.5 ml serum free media. After overnight incubation, 400 μl of media was removed and 20 μl of 1 M hydrochloride added to acidify the media and protonate Lac-Phe. 400 μl of ethyl acetate was added into each sample and vortexed for 30 seconds to extract Lac-Phe into the organic layer. 300 μl from the top layer was transferred to a new Eppendorf tube and dried down under a stream of nitrogen. The residue was re-suspended in 100 ul of an 80:20 mixture of acetonitrile/water. Cells were kept on ice to harvest the lysate. 150 μl of PBS was added into each well and the cells scraped into an Eppendorf tube. This step was repeated again to ensure all cells have been harvested. […]

[9] = tested on: primary peritoneal macrophages; assay: In vitro Lac-Phe production assay with added lactate, primary macrophages; assay type: cell-based, mice; details: lactate 25 mM in conditioned media
Procedure: Primary peritoneal macrophage isolation. Mice were injected with 2 ml of 3% brewer thioglycollate medium (Fisher, B111716) and the macrophage elicitation allowed to proceed for 3 days. For the macrophage isolation, mice were euthanized with CO2 and the abdominal skin peeled back to expose the peritoneal wall. 10 ml of ice-cold calcium and magnesium free DPBS was injected into the peritoneal cavity, taking care not to puncture the organs. The mice were gently massaged and the fluid aspirated from the peritoneum using the same syringe and needle. The fluid was dispensed into a 50 ml falcon tube on ice. Cells were then centrifuged at 4° C. for 10 minutes at 400×g. The supernatant was discarded and the cells re-suspended in cold DMEM/F-12 containing 10% FBS and pen/strep. Cells were allowed to adhere in the incubator for at least 2 hours then washed three times in warm PBS to remove non-adherent cells. Fresh media was added to the cells and experiments performed within 1-2 days after the isolation.
In vitro Lac-Phe Production assay. Cells were plated in 12-well plates at 70-80% confluence. The next day, cells were washed two times with PBS and incubated in 0.5 ml serum free media. After overnight incubation, 400 μl of media was removed and 20 μl of 1 M hydrochloride added to acidify the media and protonate Lac-Phe. […]

[10] = 50 mg/kg/day IP, 10 days, DIO mice

## C[C@H](O)C(=O)N[C@@H](Cc1ccccc1)C(=O)O [Lac-Phe, N-lactoyl-phenylalanine]
[1]
  concentration at 30 min: 3.8 µM
[2]; 12 h post-administration
  suppression of food intake compared to vehicle-treated mice: 52%
[2]; 12 hr
  carbon dioxide production (VCO2): did not alter
  oxygen consumption (VO2): did not alter
  respiratory exchange ratio (RER): did not alter
[2]; mean±SEM (vehicle 6.4±0.6)
  food intake over 12 h post-administration: 3.0±1.0 kcal/mouse
[2]; vs vehicle
  ambulatory activity: not different between groups
[3]; [10]
  brown fat (BAT) mass vs vehicle: −41%
  change in total body weight: −7%
  epididymal fat (eWAT) mass vs vehicle: −20%
  subcutaneous inguinal fat (iWAT) mass vs vehicle: −41%
  total lean mass, estimated by weights of other organs: unaffected
[3]; 50 mg/kg/day IP, 10 days, DIO mice, mean±SEM
  reduction in body weight: -2.8 ± 1.1 g
[3]; 50 mg/kg/day IP, 10 days, DIO mice, mean±SEM (vehicle 2.9±0.1)
  food intake, chronic treatment: 2.1±0.1 g/mouse/day
[3]; day 10, 1 g/kg glucose, 6 h fast, vs vehicle
  glucose tolerance test: improved glucose clearance
[4]
  body weight vs control: suppressed
  food intake vs control: suppressed
[5]; 1 g/kg glucose, 6 h fast
  glucose homeostasis (glucose tolerance test): improves glucose homeostasis
[5]; 9-day, 18 week male DIO mice
  body weight: suppresses
[5]; 18 week male DIO mice
  appetite (cumulative food intake): suppresses
[6]; 50 μM
  effect on AgRP neurons (firing frequency, resting membrane potential): rapidly inhibited
[6]; 50 μM with inhibitor cocktail
  hyperpolarization of AgRP neurons in presence of TTX, DNQX, D-AP5, bicuculline: persisted
[6]; all concentrations tested, baseline or inhibitor-treated
  AgRP neurons hyperpolarized (response ratio): > 70%
[6]; dose response, lowest active concentration
  concentration showing inhibitory activity on AgRP neurons: ≥ 1 µM
POMC neurons in the ARH; 50 μM
  effect on POMC neurons (firing frequency, depolarization): rapidly activate
POMC neurons in the ARH; 50 μM with inhibitor cocktail
  depolarization of POMC neurons in presence of inhibitor cocktail: persisted
POMC neurons in the ARH; dose response
  concentration required to activate POMC neurons: at least 20 μM
[7]
  excitability of 5-HT-positive neurons: No effect
[8]
  excitability of SF1-positive neurons: No effect

## C[C@H](O)C(=O)[O-].[Na+] [lactate, sodium L-lactate]
[4]
  body weight vs control: identical to vehicle treated mice
  food intake vs control: identical to vehicle treated mice
RAW264.7 cells
  increase of extracellular levels of Lac-Phe: +85%
[9]
  increase of extracellular levels of Lac-Phe: +200%

## N[C@@H](Cc1ccccc1)C(=O)O [phenylalanine, L-Phenylalnine]
[4]
  body weight vs control: identical to vehicle treated mice
  food intake vs control: identical to vehicle treated mice
